Experimental data taken from patent US20040092524A1, “Novel aminophenyl piperazine or aminophenyl piperidine derivatives inhibiting prenyl transferase proteins and method for preparing same” (priority 2000, published 2004).

These molecules were tested against T1, protein farnesyl transferase (Bos taurus, UniProt P29702+P49355) (assay: Inhibition of protein farnesyl transferase (dansyl-GCVLS fluorescence)). Settings: enzyme partially purified from bovine brain; 2 μM FPP, 2 μM dansyl GCVLS, 10 minutes at 37° C.; read-out: IC50 (PFTase).
T1 construct: partially purified from bovine brain by ion-exchange chromatography; from tissue; host or cells: bovine brain
Assay type: biochemical
Protocol: A) Evaluation of the Inhibition of Protein Famesyl Transferase:
The famesylation of the dansylated peptide GCVLS, catalyzed with the enzyme protein famesyl transferase results in a change in the emission spectrum of the dansyl group, and especially an increase in the emission at 505 nm when the molecule is excited at 340 nm. When measured using the spectrofluorimeter, this emission is proportional to the activity of the enzyme (Pompliano et al., J. Am. Chem. Soc. 1992; 114: 7945-7946).
55 mM TRIS/HCl pH 7.5; 5.5 mM DTT; 5.5 mM MgCl2; 110 μM ZnCl2, 0.22% B-octyl-B D-glucopyrannoside.
Farnesyl pyrophosphate (FPP), (Sigma)
Dansylated peptide dansyl-GCVLS (Neosystem/Strasbourg, France)
The protein farnesyl transferase is partially purified from bovine brain by ion-exchange chromatography on Q-sepharose (Pharmacia) (Moores et al., J. Biol. Chem. 1991, 266: 14603-14610, Reiss et al., Cell 1990, 62: 81-88).
The reaction mixture containing 2 μM of FPP, 2 μM of dansyl GCVLS with or without (zero) the amount of enzyme giving an intensity of 100 on the spectrofluorimeter after incubation for 10 minutes at 37° C., is prepared on ice.
In an Eppendorf tube, 360 μL of reaction mixture are mixed with 40 μl of 10× concentrated test product or of solvent, and incubated for 10 minutes at 37° C. The reaction is quenched on ice and the fluorescence intensity is measured (excitation at 340 nm, 4 nm slit, emission at 505 nm, 10 nm slit). The tests are performed in duplicate. The results are expressed as a percentage of inhibition. Under these conditions, the derivatives of the present invention were identified as powerful inhibitors of protein farnesyl transferase (IC50<10 μM).
Adaptation of the method to a 96-well format:
The procedure is similar to that above, except that the measurements are performed in a “Black Fluorotrack 200” 96-well device (Greiner, Poitiers, France) and the readings are performed using a “Spectrametrix Gemini” 96-well fluorimeter (Molecular Devices, Sunnyvale, Calif., USA)

| Compound | IC50 |
| --- | --- |
| CC(C)CNC(=S)N1CCN(c2ccc(N(Cc3cnc[nH]3)S(=O)(=O)c3ccccc3)cc2)CC1 [Example 45, 4-{4-[Benzenesulfonyl-(3H-imidazol-4-ylmethyl)amino]phenyl}-1-piperazinecarbothioic acid isobutylamide] | 6 nM |
| CCCNC(=O)N(Cc1cnc[nH]1)c1ccc(N2CCN(C(=O)c3ccc(Cl)s3)CC2)cc1 [Example 82, 1-{4-[4-(5-Chloro-2-thiophenecarbonyl)-1-piperazinyl]phenyl}-1-(3H-imidazol-4-ylmethyl)-3-propyl-urea] | 7 nM |
| N#Cc1ccc(Cn2cncc2CN(C(=O)c2ccc(C#N)cc2)c2ccc(N3CCN(C(=O)c4ccc(Cl)s4)CC3)cc2)cc1 [Example 123, N-{4-[4-(5-Chloro-2-thiophenecarbonyl)-1-piperazinyl]phenyl}-4-cyano-N-[3-(4-cyanobenzyl)-3H-imidazol-4-ylmethyl]-benzamide] | 2 nM |
| N#Cc1ccc(Cn2cncc2CN(C(=O)C2CCCCC2)c2ccc(N3CCN(C(=O)c4ccc(Cl)s4)CC3)cc2)cc1 [Example 124, Cyclohexanecarboxylic acid {4-[4-(5-chloro-2-thiophenecarbonyl)-1-piperazinyl]phenyl}-[3-(4-cyanobenzyl)-3H-imidazol-4-ylmethyl]amide] | 2 nM |
| CC(C)CNC(=S)N1CCC(c2ccc(N(Cc3cnc[nH]3)S(=O)(=O)c3ccccc3)cc2)CC1 [Example 141, 4-{4-[Benzenesulfonyl-(3H-imidazol-4-ylmethyl)amino]phenyl}piperidine-1-carbothioic acid isobutylamide] | 9 nM |

The remaining lines, values ahead:

| IC50 | Compound |
| --- | --- |
| 2 nM | N#Cc1ccc(Cn2cncc2CN(C(=O)c2ccccc2)c2ccc(N3CCN(C(=O)c4ccc(Cl)s4)CC3)cc2)cc1 [Example 108, N-{4-[4-(5-Chloro-2-thiophenecarbonyl)-1-piperazinyl]phenyl}N-[3-(4-cyanobenzyl)-3H-imidazol-4-ylmethyl]benzamide] |
| 1 nM | N#Cc1ccc(Cn2cncc2CN(C(=O)c2cccs2)c2ccc(N3CCN(C(=O)c4ccc(Cl)s4)CC3)cc2)cc1 [Example 109, Thiophene-2-carboxylic acid {4-[4-(5-chloro-2-thiophenecarbonyl)-1-piperazinyl]phenyl}[3-(4-cyanobenzyl)-3H-imidazol-4-ylmethyl]amide] |
| 2 nM | N#Cc1ccc(Cn2cncc2CN(C(=O)c2ccccc2Cl)c2ccc(N3CCN(C(=O)c4ccc(Cl)s4)CC3)cc2)cc1 [Example 110, 2-Chloro-N-{4-[4-(5-chloro-2-thiophenecarbonyl)-1-piperazinyl]phenylk}-N-[3-(4-cyanobenzyl)-3H-imidazol-4-ylmethyl]benzamide] |
| 2 nM | N#Cc1ccc(Cn2cncc2CN(C(=O)c2ccccc2F)c2ccc(N3CCN(C(=O)c4ccc(Cl)s4)CC3)cc2)cc1 [Example 113, N-{4-[4-(5-Chloro-2-thiophenecarbonyl)-1-piperazinyl]phenyl}-N-[3-(4-cyanobenzyl)-3H-imidazol-4-ylmethyl]-2-fluorobenzamide] |
| 2 nM | N#Cc1ccc(Cn2cncc2CN(C(=O)c2cccc(F)c2)c2ccc(N3CCN(C(=O)c4ccc(Cl)s4)CC3)cc2)cc1 [Example 114, N-{4-[4-(5-Chloro-2-thiophenecarbonyl)-1-piperazinyl]phenyl}-N-[3-(4-cyanobenzyl)-3H-imidazol-4-ylmethyl]-3-fluorobenzamide] |
| 0.9 nM | N#Cc1ccc(Cn2cncc2CN(c2ccc(N3CCN(C(=O)c4ccc(Cl)s4)CC3)cc2)S(=O)(=O)c2ccccc2C#N)cc1 [Example 126, N-{4-[4-(5-Chloro-2-thiophenecarbonyl)-1-piperazinyl]phenyl}-2-cyano-N-[3-(4-cyanobenzyl)-3H-imidazol-4-ylmethyl]benzenesulfonamide] |

These molecules were tested against T2, GGPT I (Bos taurus, UniProt P29702+Q5EAD5) (assay: Inhibition of geranylgeranyl transferase protein I (3H-GGPP, RhoA-GST filter assay)). Settings: enzyme partially purified from bovine brain; 0.2 μM 3H-GGPP, 1 μM RhoA-GST, 45 minutes at 37° C.; read-out: IC50 (PGGTase).
T2 construct: GGPT I is partially purified from bovine brain by ion-exchange chromatography; from tissue; host or cells: bovine brain
Assay type: biochemical
Protocol: B) Evaluation of the Inhibition of Geranyl Geraryl Transferase Protein I:
55 mM TRIS/HCl pH 7.5; 5.5 mM DTT; 5.5 mM MgCl2; 110 μM ZnCl2, 0.22% N-octyl-B D-glucopyrannoside.
^3H-geranylgeranyl pyrophosphate (GGPP), 66 μM, 15 CI/mmol, (Isotopchim) Rho-GST recombinant protein
GGPT I is partially purified from bovine brain by ion-exchange chromatography on Q-sepharose (Pharmacia); elution at 0.23 and 0.4 M NaCl, respectively.
The reaction mixture containing 0.2 μM of ^3H-GGPP, 1 μM of RhoA-GST with or without (zero) 5 μl of GGPT/test, is prepared on ice.
In an Eppendorf tube, 45 μl of reaction mixture are mixed with 5 μl of 10× concentrated test product or of solvent, and incubated for 45 minutes at 37° C. A 45 μl aliquot is placed on a phosphocellulose P81 filter (Whatman, Maidstone, UK) numbered, washed with 50% ethanol, phosphoric acid (0.5%) and counted by scintillation.
The tests are performed in duplicate. The results are expressed as a percentage of inhibition.
Adaptation of the Method to a 96-well Format: […]
The tests are performed in triplicate. The results are expressed as a percentage of inhibition.

| IC50 | Compound |
| --- | --- |
| 700 nM | N#Cc1ccc(Cn2cncc2CN(C(=O)c2cccs2)c2ccc(N3CCN(C(=O)c4ccc(Cl)s4)CC3)cc2)cc1 [Example 109, Thiophene-2-carboxylic acid {4-[4-(5-chloro-2-thiophenecarbonyl)-1-piperazinyl]phenyl}[3-(4-cyanobenzyl)-3H-imidazol-4-ylmethyl]amide] |
